Experiment [1] concerns Cryptococcus neoformans lysis, adenylate kinase release luminescence, 4 h. Put plainly: fungal lysis via adenylate kinase leakage – AK release luminescence, dry powder, dose response (AID 743159).
Experiment in experiment [2]: as above
The note with it: Cryptococcus neoformans lysis, adenylate kinase release luminescence, 4 h; at 15 µM (top of the series).

The results in this text go back to PubChem BioAssay AID743159 (Broad Institute, 2013).

Where “and” joins values, the source holds several entries; their conditions need not be identical. Identical values can stand only once. Calls of active or inactive are those of the source.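 The calls were made as follows: active = fitted curve reaches a 40% rise in lysis activity at or below the top valid tested dose; inconclusive = flat curve holding a 30 to 70% rise, or poor fit; inactive = signal moving opposite to the expected rise, and the rest.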

Turning to `S=c1[nH]c2cccc(Cl)c2n1CCOc1ccccc1`, in experiment [1], the AC40 was 851 nM.
On to `Cc1cccc(OCCn2c(=S)[nH]c3cc(C(F)(F)F)ccc32)c1`, for which the AC40 in experiment [1] was 352 nM.
For `Fc1cccc2c1[nH]c(=S)n2CCOc1ccccc1`, the AC40 in experiment [1] was 1500 nM.
Consider `COC(=O)C1=C(C)N(Cc2ccccc2)C(=S)NC1c1ccc(Br)cc1` (stereo not given), for which the AC40 in experiment [1] is 1810 nM.
Consider `COC(=O)C1=C(C)N(Cc2ccc(Br)cc2)C(=S)NC1c1ccc(OC)cc1` (stereo not given), for which, in experiment [1], the AC40 is 925 nM.
Consider `CCOC(=O)c1c(NC(=O)CNCCN(C)C)sc(C)c1-c1ccccc1`, for which, in experiment [2], the lysis activity increase was 16.9% (inactive).
For `CCOC(=O)c1c(NC(=O)CN2CCN(C)CC2)sc(C)c1-c1ccc(C)cc1`, the lysis activity increase in experiment [2] was -2.55% (inactive).
Regarding `CCOC(=O)c1c(-c2ccc(C(C)(C)C)cc2)csc1NC(=O)CN1CCN(C)CC1`, in experiment [1], the AC40 is 6330 nM.
Take `CCOc1ccc(OCCn2c(=S)[nH]c3ccccc32)cc1`: in experiment [1], the AC40 is 880 nM.
Regarding `CCOC(=O)c1c(-c2ccc(F)cc2)csc1NC(=O)CN1CCN(C)CC1`, in experiment [1], the AC40 is > 15000 nM (inactive).
As to `O=c1[nH]c2ccccc2n1CCOc1ccccc1`, in experiment [2], the lysis activity increase was -3.24% (inactive) and 10.6% (inactive).
With `S=c1[nH]c2ccccc2n1CCOc1ccccc1`, the AC40 in experiment [1] was 1630 nM.
`CCOC(=O)c1c(-c2ccc(F)cc2)csc1NC(=O)CN1CCN(CC)CC1`: the lysis activity increase in experiment [2] is 20.2% (inactive).
Still for that read-out and setting: the figure for `CCOC(=O)c1c(-c2ccc(OC)cc2)csc1NC(=O)CN(C)CC(=O)N(C)C` is -2.9% (inactive).
Turning to `Fc1ccccc1OCCn1c(=S)[nH]c2ccccc21`, the AC40 in experiment [1] is 1770 nM.
Turning to `Cc1ccccc1OCCn1c(=S)[nH]c2ccccc21`, in experiment [1], the AC40 was 596 nM.
For `Cc1ccc(OCCn2c(C)nc3ccccc32)cc1`, the AC40 in experiment [1] was 1480 nM.
As to `COC(=O)C1=C(C)N(Cc2ccc(Cl)cc2)C(=S)NC1c1ccc(Br)cc1` (stereo not given), the AC40 in experiment [1] is 454 nM.
Take `CCOC(=O)c1c(-c2ccc(C(C)(C)C)cc2)csc1NC(=O)CN1CCN(CC)CC1`: the AC40 in experiment [1] is 6310 nM.
The same measure, in the same setting: to `CCOC(=O)c1c(-c2ccc(-c3ccccc3)cc2)csc1NC(=O)CNCCN(C)C` belongs 6640 nM.
Turning to `c1ccc(OCCn2cnc3ccccc32)cc1`, in experiment [1], the AC40 is > 15000 nM (inactive).
Turning to `S=c1[nH]c2ccccc2n1CCOc1ccc(Cl)cc1`, in experiment [1], the AC40 was 270 nM.
With `Cc1ccc(OCCn2c(SCCO)nc3ccccc32)c(C(C)C)c1`, in experiment [2], the lysis activity increase was 18.7% (inactive).
Turning to `Cc1ccc(OCCn2c(=S)[nH]c3ccccc32)c(C(C)C)c1`, in experiment [1], the AC40 was 334 nM and 155 nM.
The same measure, in the same setting: the figure for `Cc1ccc2c(c1)[nH]c(=S)n2CCOc1ccccc1` is 211 nM; for `Cc1ccc(OCCn2cnc3ccccc32)cc1` it is 2860 nM; for `COC(=O)C1=C(C)N(Cc2ccc(Br)cc2)C(=S)NC1c1ccc(F)cc1` (stereo not given) it is 681 nM.
Consider `Cc1ccc(C(C)C)c(OCCn2c(=S)[nH]c3ccccc32)c1`, for which the AC40 in experiment [1] is 232 nM.
As for `COC(=O)C1=C(C)N(Cc2ccc(F)cc2)C(=S)NC1c1cccc(F)c1` (stereo not given), the AC40 in experiment [1] is 2300 nM.
Take `Cc1ccc(OCCn2c(=S)[nH]c3ccccc32)cc1`: in experiment [1], the AC40 was 703 nM.
